According to patent US8703768B2, “Nitrogen containing heteroaryl compounds” (Hoffmann-La Roche Inc., priority 2010, dated 2014):

target: human PDE10A (Homo sapiens (Human), UniProt Q9Y233); test: human PDE10A full length Scintillation Proximity Assay (SPA); assay type: biochemical; settings: 50 nM cGMP and 50 nM [3H]-cGMP, 20 minutes at room temperature; read-out: PDE10A inhibition IC50
How it was run: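 Full-length enzyme incubated with compounds; reaction started with cGMP plus [^3H]-cGMP substrate and run 20 min at room temperature. Stopped with yttrium silicate SPA beads in 18 mM zinc sulphate, 1 h shaking, then scintillation counting; background from enzyme-free wells.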

human PDE10A, sequence (Q9Y233 other isoform, or with tags, fused parts or gaps): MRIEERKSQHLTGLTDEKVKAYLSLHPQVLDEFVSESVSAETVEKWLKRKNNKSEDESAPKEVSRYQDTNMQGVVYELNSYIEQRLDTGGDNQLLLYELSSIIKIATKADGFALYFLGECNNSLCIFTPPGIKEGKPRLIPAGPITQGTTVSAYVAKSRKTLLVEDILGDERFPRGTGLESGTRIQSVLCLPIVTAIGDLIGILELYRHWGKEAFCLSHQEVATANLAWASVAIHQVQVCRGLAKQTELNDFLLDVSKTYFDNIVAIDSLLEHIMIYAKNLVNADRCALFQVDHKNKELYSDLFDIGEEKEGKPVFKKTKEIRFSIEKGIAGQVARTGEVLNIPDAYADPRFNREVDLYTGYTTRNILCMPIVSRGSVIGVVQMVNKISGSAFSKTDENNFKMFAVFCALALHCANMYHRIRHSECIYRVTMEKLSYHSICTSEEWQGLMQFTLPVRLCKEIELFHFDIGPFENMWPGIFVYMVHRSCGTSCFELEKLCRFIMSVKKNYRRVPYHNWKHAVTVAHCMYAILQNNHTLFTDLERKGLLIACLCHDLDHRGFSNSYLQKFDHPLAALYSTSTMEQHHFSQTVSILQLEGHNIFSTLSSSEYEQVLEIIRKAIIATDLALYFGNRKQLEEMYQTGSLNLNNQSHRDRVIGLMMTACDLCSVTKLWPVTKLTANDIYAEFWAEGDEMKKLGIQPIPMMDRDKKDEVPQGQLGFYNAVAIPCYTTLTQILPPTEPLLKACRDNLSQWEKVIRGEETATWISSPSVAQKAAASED

Which IC50 does the source give for `Cn1ncc(NC(=O)c2nc(C3CC3)cnc2Nc2cncnc2)c1C(=O)NC1CCN(C(=O)OC(C)(C)C)C1` (centres unmarked) [Example 236, 3-[(4-{[6-Cyclopropyl-3-(pyrimidin-5-ylamino)-pyrazine-2-carbonyl]-amino}-2-methyl-2H-pyrazole-3-carbonyl)-amino]-pyrrolidine-1-carboxylic acid tert-butyl ester] here?
Its IC50 is 6.8 nM.

For `CNC(=O)c1c(NC(=O)c2nc(C3CC3)cnc2Nc2cncnc2)cnn1CCO` [Example 264, 6-Cyclopropyl-3-(pyrimidin-5-ylamino)-pyrazine-2-carboxylic acid [1-(2-hydroxy-ethyl)-5-methylcarbamoyl-1H-pyrazol-4-yl]-amide], which IC50 is on record?
Its IC50 is 3.2 nM.

Which IC50 does the source give for `CNC(=O)c1nc(-c2ccccn2)sc1NC(=O)c1nc(C2CC2)ccc1Nc1cncnc1` [Example 65, 6-Cyclopropyl-3-(pyrimidin-5-ylamino)-pyridine-2-carboxylic acid (4-methylcarbamoyl-2-pyridin-2-yl-thiazol-5-yl)-amide] here?
Its IC50 is 1.4 nM.

How did the IC50 turn out when `CCc1ccc(NC(=O)c2nc(C3CC3)cnc2Nc2cncnc2)c(C(=O)NCC(C)(C)O)n1` [Example 181, 6-Cyclopropyl-3-(pyrimidin-5-ylamino)-pyrazine-2-carboxylic acid [6-ethyl-2-(2-hydroxy-2-methyl-propylcarbamoyl)-pyridin-3-yl]-amide] was run?
Its IC50 is 0.4 nM.

With `O=C(Nc1cnccc1C(=O)N1CCC1)c1nc(C2CC2)ccc1Nc1cncnc1` [Example 67, 6-Cyclopropyl-3-(pyrimidin-5-ylamino)-pyridine-2-carboxylic acid [4-(azetidine-1-carbonyl)-pyridin-3-yl]-amide] as the compound, how does the IC50 read?
Its IC50 is 4.2 nM.

`CNC(=O)COc1ccc(NC(=O)c2nc(C3CC3)cnc2Nc2cncnc2)c(C(=O)NC)c1` [Example 322, 6-Cyclopropyl-3-(pyrimidin-5-ylamino)-pyrazine-2-carboxylic acid (2-methylcarbamoyl-4-methylcarbamoylmethoxy-phenyl)-amide] was tested. Which IC50 did it give?
The IC50 was 1.7 nM.

For `Cn1ncc(NC(=O)c2nc(C3CC3)cnc2Nc2cncnc2)c1C(=O)NC[C@H]1CCCO1` [Example 256, 6-Cyclopropyl-3-(pyrimidin-5-ylamino)-pyrazine-2-carboxylic acid (1-methyl-5-{[(R)-1-(tetrahydro-furan-2-yl)methyl]-carbamoyl}-1H-pyrazol-4-yl)-amide], which IC50 is on record?
Its IC50 is 3.3 nM.

With `CNC(=O)c1c(NC(=O)c2nc(C3CC3)cnc2Nc2cncnc2)cnn1C1CCOC1` (centres unmarked) [Example 250, 6-Cyclopropyl-3-(pyrimidin-5-ylamino)-pyrazine-2-carboxylic acid [5-methylcarbamoyl-1-(tetrahydro-furan-3-yl)-1H-pyrazol-4-yl]-amide] as the compound, how does the IC50 read?
Its IC50 is 15.9 nM.

`CCN(CC)C(=O)c1c(NC(=O)c2nc(C3CC3)cnc2Nc2cncnc2)cnn1C` [Example 228, 6-Cyclopropyl-3-(pyrimidin-5-ylamino)-pyrazine-2-carboxylic acid (5-diethylcarbamoyl-1-methyl-1H-pyrazol-4-yl)-amide] was tested. Which IC50 did it give?
The IC50 was 38 nM.

With `CC(C)(O)CNC(=O)c1c(NC(=O)c2nc(C3CC3)cnc2Nc2cncnc2)cnn1CC1CCO1` (centres unmarked) [Example 283, 6-Cyclopropyl-3-(pyrimidin-5-ylamino)-pyrazine-2-carboxylic acid [5-(2-hydroxy-2-methyl-propylcarbamoyl)-1-oxetan-2-ylmethyl-1H-pyrazol-4-yl]-amide] as the compound, how does the IC50 read?
The IC50 was 1.1 nM.

For `CNC(=O)c1ccncc1NC(=O)c1nc(C2CC2)cnc1Nc1cncnc1` [Example 124, 6-Cyclopropyl-3-(pyrimidin-5-ylamino)-pyrazine-2-carboxylic acid (4-methylcarbamoyl-pyridin-3-yl)-amide], which IC50 is on record?
Its IC50 is 2.1 nM.

`CN(CC(C)(C)O)C(=O)c1c(NC(=O)c2nc(C3CC3)cnc2Nc2cncnc2)cnn1C` [Example 153, 6-Cyclopropyl-3-(pyrimidin-5-ylamino)-pyrazine-2-carboxylic acid {5-[(2-hydroxy-2-methyl-propyl)-methyl-carbamoyl]-1-methyl-1H-pyrazol-4-yl}-amide] was tested. Which IC50 did it give?
The IC50 was 16.1 nM.

How did the IC50 turn out when `CC(C)n1ncc(NC(=O)c2nc(C3CC3)cnc2Nc2cncnc2)c1C(=O)NCC(C)(C)O` [Example 138, 6-Cyclopropyl-3-(pyrimidin-5-ylamino)-pyrazine-2-carboxylic acid [5-(2-hydroxy-2-methyl-propylcarbamoyl)-1-isopropyl-1H-pyrazol-4-yl]-amide] was run?
The IC50 was 24.9 nM.

For `Cn1cc(NC(=O)c2nc(C3CC3)ccc2Nc2cncnc2)c(C(=O)N2CCCC2)n1` [Example 21, 6-Cyclopropyl-3-(pyrimidin-5-ylamino)-pyridine-2-carboxylic acid [1-methyl-3-(pyrrolidine-1-carbonyl)-1H-pyrazol-4-yl]-amide], which IC50 is on record?
The IC50 was 7 nM.

`O=C(Nc1cc(F)c(F)cc1C(=O)N1CCC1)c1nc(C2CC2)cnc1Nc1cncnc1` [Example 291, 6-Cyclopropyl-3-(pyrimidin-5-ylamino)-pyrazine-2-carboxylic acid [2-(azetidine-1-carbonyl)-4,5-difluoro-phenyl]-amide] was tested. Which IC50 did it give?
Its IC50 is 31.2 nM.

`CN(CCO)C(=O)c1c(NC(=O)c2nc(C3CC3)cnc2Nc2cncnc2)cnn1C` [Example 226, 6-Cyclopropyl-3-(pyrimidin-5-ylamino)-pyrazine-2-carboxylic acid [5-[(2-hydroxy-ethyl)-methyl-carbamoyl]-1-methyl-1H-pyrazol-4-yl]-amide] was tested. Which IC50 did it give?
The IC50 was 54.3 nM.

`CNC(=O)c1nn(C)cc1NC(=O)c1nc(C2CCCO2)ccc1Nc1cncnc1` (centres unmarked) [Example 103, 3-(Pyrimidin-5-ylamino)-6-(tetrahydro-furan-2-yl)-pyridine-2-carboxylic acid (1-methyl-3-methylcarbamoyl-1H-pyrazol-4-yl)-amide] was tested. Which IC50 did it give?
Its IC50 is 58.7 nM.

Which IC50 does the source give for `CNC(=O)c1nnsc1NC(=O)c1nc(C2CC2)ccc1Nc1cncnc1` [Example 54, 6-Cyclopropyl-3-(pyrimidin-5-ylamino)-pyridine-2-carboxylic acid (4-methylcarbamoyl-[1,2,3]thiadiazol-5-yl)-amide] here?
Its IC50 is 25 nM.

`CN(CC(F)(F)F)C(=O)c1c(NC(=O)c2nc(C3CC3)cnc2Nc2cncnc2)cnn1C` [Example 237, 6-Cyclopropyl-3-(pyrimidin-5-ylamino)-pyrazine-2-carboxylic acid {1-methyl-5-[methyl-(2,2,2-trifluoro-ethyl)-carbamoyl]-1H-pyrazol-4-yl}-amide] was tested. Which IC50 did it give?
Its IC50 is 93.4 nM.

How did the IC50 turn out when `CN(CCCO)C(=O)c1nn(C)cc1NC(=O)c1nc(C2CC2)ccc1Nc1cncnc1` [Example 38, 6-Cyclopropyl-3-(pyrimidin-5-ylamino)-pyridine-2-carboxylic acid {3-[(3-hydroxy-propyl)-methyl-carbamoyl]-1-methyl-1H-pyrazol-4-yl}-amide] was run?
The IC50 was 7.2 nM.

Which IC50 does the source give for `CC(C)(O)CNC(=O)c1c(NC(=O)c2nc(C3CC3)cnc2Nc2cncnc2)ccc(F)c1F` [Example 318, 6-Cyclopropyl-3-(pyrimidin-5-ylamino)-pyrazine-2-carboxylic acid [3,4-difluoro-2-(2-hydroxy-2-methyl-propylcarbamoyl)-phenyl]-amide] here?
Its IC50 is 4.6 nM.

Which IC50 does the source give for `CNC(=O)c1c(NC(=O)c2nc(C3CC3)cnc2Nc2cncnc2)cccc1OC` [Example 192, 6-Cyclopropyl-3-(pyrimidin-5-ylamino)-pyrazine-2-carboxylic acid (3-methoxy-2-methylcarbamoyl-phenyl)-amide] here?
The IC50 was 3.1 nM.

For `CNC(=O)c1cc(C(F)(F)F)ccc1NC(=O)c1nc(C2CC2)cnc1Nc1cncnc1` [Example 296, 6-Cyclopropyl-3-(pyrimidin-5-ylamino)-pyrazine-2-carboxylic acid (2-methylcarbamoyl-4-trifluoromethyl-phenyl)-amide], which IC50 is on record?
The IC50 was 3.9 nM.

With `O=C(Nc1cnccc1C(=O)N1CC(F)(F)C1)c1nc(C2CC2)ccc1Nc1cncnc1` [Example 79, 6-Cyclopropyl-3-(pyrimidin-5-ylamino)-pyridine-2-carboxylic acid [4-(3,3-difluoro-azetidine-1-carbonyl)-pyridin-3-yl]-amide] as the compound, how does the IC50 read?
Its IC50 is 29.6 nM.

`CNC(=O)c1cc(C(C)C)ccc1NC(=O)c1nc(C2CC2)cnc1Nc1cncnc1` [Example 208, 6-Cyclopropyl-3-(pyrimidin-5-ylamino)-pyrazine-2-carboxylic acid (4-isopropyl-2-methylcarbamoyl-phenyl)-amide] was tested. Which IC50 did it give?
Its IC50 is 1.3 nM.

Which IC50 does the source give for `CC(C)OCCNC(=O)c1ccncc1NC(=O)c1nc(C2CC2)cnc1Nc1cncnc1` [Example 99, 6-Cyclopropyl-3-(pyrimidin-5-ylamino)-pyrazine-2-carboxylic acid [4-(2-isopropoxy-ethylcarbamoyl)-pyridin-3-yl]-amide] here?
Its IC50 is 2.6 nM.

Which IC50 does the source give for `CN(C(=O)c1nn(C)cc1NC(=O)c1nc(C2CC2)ccc1Nc1cncnc1)C1CCCC1` [Example 19, 6-Cyclopropyl-3-(pyrimidin-5-ylamino)-pyridine-2-carboxylic acid [3-(cyclopentyl-methyl-carbamoyl)-1-methyl-1H-pyrazol-4-yl]-amide] here?
The IC50 was 8.7 nM.

Which IC50 does the source give for `O=C(Nc1cnccc1C(=O)N1CCC(O)C1)c1nc(C2CC2)ccc1Nc1cncnc1` (centres unmarked) [Example 87] here?
The IC50 was 180 nM.

For `CCn1ncc(NC(=O)c2nc(C3CC3)cnc2Nc2cncnc2)c1C(=O)NC` [Example 133, 6-Cyclopropyl-3-(pyrimidin-5-ylamino)-pyrazine-2-carboxylic acid (1-ethyl-5-methylcarbamoyl-1H-pyrazol-4-yl)-amide], which IC50 is on record?
Its IC50 is 6.7 nM.

Which IC50 does the source give for `O=C(Nc1ccc(F)c(F)c1C(=O)N1CCC1)c1nc(C2CC2)cnc1Nc1cncnc1` [Example 319, 6-Cyclopropyl-3-(pyrimidin-5-ylamino)-pyrazine-2-carboxylic acid [2-(azetidine-1-carbonyl)-3,4-difluoro-phenyl]-amide] here?
Its IC50 is 15.5 nM.

With `Cn1cc(NC(=O)c2nc(C3CC3)ccc2Nc2cncnc2)c(C(=O)NCC(C)(C)O)n1` [Example 43, 6-Cyclopropyl-3-(pyrimidin-5-ylamino)-pyridine-2-carboxylic acid [3-(2-hydroxy-2-methyl-propylcarbamoyl)-1-methyl-1H-pyrazol-4-yl]-amide] as the compound, how does the IC50 read?
Its IC50 is 3.1 nM.

With `CNC(=O)c1cc(F)ccc1NC(=O)c1nc(C2CC2)cnc1Nc1cncnc1` [Example 312, 6-Cyclopropyl-3-(pyrimidin-5-ylamino)-pyrazine-2-carboxylic acid (4-fluoro-2-methylcarbamoyl-phenyl)-amide] as the compound, how does the IC50 read?
Its IC50 is 0.8 nM.
